The record followed here is patent US5451516A, “Bifunctional protein from carrots (Daucus carota) with aspartokinase and homoserine dehydrogenase activities” (priority 1991, dated 1995).

Data set [1] deals with T1, carrot (Daucus carota L. cv Danvers) aspartokinase form II (AKII, Peak II; threonine-sensitive) of the bifunctional AK-HSDH protein (Daucus carota, UniProt P37142).
T1 construct: AK was purified by a series of column chromatography steps; endogenous in cells; host or cells: carrot (Daucus carota L. cv Danvers) cell suspension culture, protein partly purified by gel filtration and DEAE chromatography
T1 sequence (P37142 88-921): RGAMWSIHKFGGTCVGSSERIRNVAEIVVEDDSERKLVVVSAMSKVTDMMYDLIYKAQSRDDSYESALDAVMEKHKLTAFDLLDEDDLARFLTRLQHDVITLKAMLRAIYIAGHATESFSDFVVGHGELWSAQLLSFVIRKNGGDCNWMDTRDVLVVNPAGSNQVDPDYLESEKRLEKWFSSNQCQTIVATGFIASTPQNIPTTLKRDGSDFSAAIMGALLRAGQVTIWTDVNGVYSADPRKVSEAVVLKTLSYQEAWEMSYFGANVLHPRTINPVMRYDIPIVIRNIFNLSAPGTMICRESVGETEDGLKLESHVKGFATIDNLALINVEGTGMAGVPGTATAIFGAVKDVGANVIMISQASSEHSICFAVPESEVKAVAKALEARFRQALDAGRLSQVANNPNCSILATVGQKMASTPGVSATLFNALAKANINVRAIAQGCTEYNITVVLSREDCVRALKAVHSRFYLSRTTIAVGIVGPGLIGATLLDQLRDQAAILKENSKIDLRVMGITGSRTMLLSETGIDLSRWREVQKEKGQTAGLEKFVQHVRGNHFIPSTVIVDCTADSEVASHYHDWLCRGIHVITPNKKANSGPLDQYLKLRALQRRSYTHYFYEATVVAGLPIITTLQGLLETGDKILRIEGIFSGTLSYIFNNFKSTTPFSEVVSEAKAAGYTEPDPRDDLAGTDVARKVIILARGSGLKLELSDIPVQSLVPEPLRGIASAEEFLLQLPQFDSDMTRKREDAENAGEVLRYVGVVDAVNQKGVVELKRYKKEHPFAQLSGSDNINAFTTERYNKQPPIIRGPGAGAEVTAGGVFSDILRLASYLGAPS
Briefly: Aspartokinase activity, hydroxamate method (second eluting DEAE peak, AKII). It is filed as biochemical. The protocol: (§1) The first eluting peak (28-32 min), AKI, was inhibited by lysine and was relatively insensitive to threonine (See Table II). The second peak (44-48 min), AKII, was inhibited by threonine and was relatively insensitive to lysine. These two peaks were kinetically different as well as having different feedback inhibition patterns. The Km(asp) for AKI was approximately 1 mM and for AKII was approximately 9 mM. Experimental conditions could affect which AK activities were observed. AK activity inhibited by lysine was not observed unless lysine was added to the homogenization buffer. If the pH of the sample was lowered to pH 6 before anion exchange, sensitivity to lysine was lost, although the total amount of AK activity remained unchanged. […] Furthermore, the lysine-sensitive activity could not be eluted from the cation-exchange medium with KC1.
AK was purified by a series of column chromatography steps. The cells were harvested after 5 days and disrupted in a nitrogen bomb as described for HSDH (B. Matthews (1989), supra) except that the threonine concentration was reduced to 1 mM and 1 mM lysine was added to the extraction buffer. The crude extract was concentrated by 60% ammonium sulfate before the first gel filtration through Biogel A-0.5 m (4.5 cm×47 cm) equilibrated with 50 mM Tris-HCl pH 7.5, 10 mM 2-mercaptoethanol, 1 mM EDTA, 1 mM lysine, 1 mM threonine and 20% glycerol. Fractions containing AK activity were combined, concentrated by the addition of an equal volume of saturated ammonium sulfate for a second gel filtration through Sephadex G-150 (2.5 cm×39 cm) and equilibrated with the same buffer plus 0.2 M KC1. Fractions with AK activity were combined, concentrated by the addition of an equal volume of saturated ammonium sulfate and dialyzed against 16 mM Tris-HCl pH 7.5, 10 mM 2-mercaptoethanol, 1 mM lysine, 1 mM threonine and 20% glycerol. The dialyzed sample was loaded onto an Altex Spherogel TSK DEAE-5PW column (21.5 mm×15 cm). AK activity was eluted over 65 min with a gradient from 0-0.5 M KCl in 20 mM Mes pH 6, 5 mM 2-mercaptoethanol, 1 mM lysine, 1 mM threonine, and 20% glycerol. Fractions containing activity were combined, diluted four-fold and applied to an Altex Spherogel TSK DEAE-5PW column (7.5 mm×7.5 cm) equilibrated with 50 mM Tris-HCl pH 7.5 containing 5 mM 2-mercaptoethanol,1 mM lysine, 1 mM threonine and 20% glycerol fractions containing AK activity were combined and diluted four-fold and reapplied to the column equilibrated with the same buffer containing 20 mM aspartate. Fractions with AK activity were concentrated by filtration through Centricon-303 filters (Amicon) and stored at -20° C.
Aspartokinase activity was assayed by the hydroxamate method as described in P. Bryan et al., Biochem Biophys Res Comm 41: 1211-1217 (1970). […]

Data set [2] relates to carrot (Daucus carota L. cv Danvers) aspartokinase form I (AKI, Peak I; lysine-sensitive) of the bifunctional AK-HSDH protein. Briefly: Aspartokinase activity, hydroxamate method (first eluting DEAE peak, AKI). It is filed as biochemical. The note with it: for % Control AK activity +lys (10 mM): 10 mM lysine; for % Control AK activity +thr (10 mM): 10 mM threonine.
Substrate in data set [3]: N[C@@H](CC(=O)O)C(=O)O
Kind of data set: Aspartokinase activity, hydroxamate method (second eluting DEAE peak, AKII). It is filed as biochemical, Daucus carota. The note with it: other: AKII, second peak (44-48 min) from DEAE pH 6, 37.0 °C. The protocol:
as §1
AK was purified by a series of column chromatography steps. The cells were harvested after 5 days and disrupted in a nitrogen bomb as described for HSDH (B. Matthews (1989), supra) except that the threonine concentration was reduced to 1 mM and 1 mM lysine was added to the extraction buffer. The crude extract was concentrated by 60% ammonium sulfate before the first gel filtration through Biogel A-0.5 m (4.5 cm×47 cm) equilibrated with 50 mM Tris-HCl pH 7.5, 10 mM 2-mercaptoethanol, 1 mM EDTA, 1 mM lysine, 1 mM threonine and 20% glycerol. […]

Where two headings read alike, the source gives them in different places.

For `NCCCC[C@H](N)C(=O)O` [lys, lysine], the remaining activity at 10000 µM in data set [1] (read-out: % Control AK activity +lys (10 mM), prep ak33II, 10 mM lysine) was determined as 75%; in data set [1] (read-out: % Control AK activity +lys (10 mM), prep ak45II, 10 mM lysine), 91%. Also, the figures for the “% Control AK activity +lys (10 mM)” value in data set [2] (prep ak32I) and in data set [2] (prep ak33I) were 21 % Control and 39 % Control, respectively.

For `C[C@@H](O)[C@H](N)C(=O)O` [thr, threonine], the remaining activity at 10000 µM in data set [1] (prep ak33II, 10 mM threonine, read-out: % Control AK activity +thr (10 mM)) turned out to be 32%; in data set [1] (prep ak45II, 10 mM threonine, read-out: % Control AK activity +thr (10 mM)) it was 33%. For the same molecule, the results for the “% Control AK activity +thr (10 mM)” value in data set [2] (prep ak32I) and in data set [2] (prep ak33I) were 68 % Control and 71 % Control, respectively.

B1: carrot (Daucus carota L. cv Danvers) aspartokinase form II (AKII, Peak II; threonine-sensitive) of the bifunctional AK-HSDH protein (Daucus carota) (protein)
chain: RGAMWSIHKFGGTCVGSSERIRNVAEIVVEDDSERKLVVVSAMSKVTDMMYDLIYKAQSRDDSYESALDAVMEKHKLTAFDLLDEDDLARFLTRLQHDVITLKAMLRAIYIAGHATESFSDFVVGHGELWSAQLLSFVIRKNGGDCNWMDTRDVLVVNPAGSNQVDPDYLESEKRLEKWFSSNQCQTIVATGFIASTPQNIPTTLKRDGSDFSAAIMGALLRAGQVTIWTDVNGVYSADPRKVSEAVVLKTLSYQEAWEMSYFGANVLHPRTINPVMRYDIPIVIRNIFNLSAPGTMICRESVGETEDGLKLESHVKGFATIDNLALINVEGTGMAGVPGTATAIFGAVKDVGANVIMISQASSEHSICFAVPESEVKAVAKALEARFRQALDAGRLSQVANNPNCSILATVGQKMASTPGVSATLFNALAKANINVRAIAQGCTEYNITVVLSREDCVRALKAVHSRFYLSRTTIAVGIVGPGLIGATLLDQLRDQAAILKENSKIDLRVMGITGSRTMLLSETGIDLSRWREVQKEKGQTAGLEKFVQHVRGNHFIPSTVIVDCTADSEVASHYHDWLCRGIHVITPNKKANSGPLDQYLKLRALQRRSYTHYFYEATVVAGLPIITTLQGLLETGDKILRIEGIFSGTLSYIFNNFKSTTPFSEVVSEAKAAGYTEPDPRDDLAGTDVARKVIILARGSGLKLELSDIPVQSLVPEPLRGIASAEEFLLQLPQFDSDMTRKREDAENAGEVLRYVGVVDAVNQKGVVELKRYKKEHPFAQLSGSDNINAFTTERYNKQPPIIRGPGAGAEVTAGGVFSDILRLASYLGAPS
notes: AK was purified by a series of column chromatography steps; The cells were harvested after 5 days; endogenous in cells; host or cells: carrot (Daucus carota L. cv Danvers) cell suspension culture, protein partly purified by gel filtration and DEAE chromatography
As for B1, in data set [3], the Km turned out to be 9 mM.
